This is an account of results in US20220204497A1, “NOVEL COMPOUND HAVING ANTICANCER ACTIVITY, AND METHOD FOR PRODUCING SAME” (MEDICINAL BIOCONVERGENCE RESEARCH CENTER, priority 2019, published 2022).

In the data set the test system is A549 cells. Nature of the data set: Cell viability by MTT method in A549 cells. Type of data set: cell-based. Also on record: concentration or dose not given beside the values. Particulars: 72 hours treatment.

Molecules are shown by their SMILES.

For `Cc1ccc(S(=O)(=O)N[C@@H](Cn2cnc3ccccc32)C(=O)Nc2ccc(N3CCOCC3)cc2)cc1` [Compound 138, (S)-3-(1H-benzo[d]imidazol-1-yl)-2-(4-methylphenylsulfonamido)-N-(4-morpholinophenyl)propanamide], the “Cell Viability (% inhibition) (A549)” value was 14.63 ± 1.98%.
Then `Cc1ccc(S(=O)(=O)N[C@H](Cn2c(=O)c(=O)[nH]c3ccccc32)C(=O)Nc2ccc(N3CCOCC3)cc2)cc1` [Compound 139, (R)-3-(2,3-dioxo-3,4-dihydroquinoxalin-1(2H)-yl)-2-(4-methylphenylsulfonamido)-N-(4-morpholinophenyl)propanamide], with 9.99 ± 0.24%; and `Cc1ccc(S(=O)(=O)N[C@@H](CCCCNC(=O)c2ccc(C(F)(F)F)cn2)C(=O)Nc2ccc(N3CCOCC3)cc2)cc1` [Compound 140, (S)—N-(5-(4-methylphenylsulfonamido)-6-(4-morpholinophenylamino)-6-oxohexyl)-5-(trifluoromethyl)picolinamide], with 86.68 ± 1.25%.
Then `Cc1ccc(S(=O)(=O)N[C@@H](CCC(=O)OCc2ccccc2)C(=O)Nc2ccc(N3CCOCC3)cc2)cc1` [Compound 141, (S)-Benzyl 4-(4-methylphenylsulfonamido)-5-(4-morpholinophenylamino)-5-oxopentanoate], with 40.15 ± 6.15%; and `Cc1ccc(S(=O)(=O)N[C@@H](CC(=O)OCc2ccccc2)C(=O)Nc2ccc(N3CCOCC3)cc2)cc1` [Compound 142, (S)-Benzyl 3-(4-methylphenylsulfonamido)-4-(4-morpholinophenylamino)-4-oxobutanoate], with 15.9 ± 4.84%; and `CC(C)C[C@H](NS(=O)(=O)c1ccc(C(=O)O)cc1)C(=O)N1CCOCCOCCOCC1` [Compound 157, (S)-4-(N-(4-methyl-1-oxo-1-(1,4,7-trioxa-10-azacyclododecan-10-yl)pentan-2-yl)sulfamoyl)benzoic acid], with 64.40 ± 2.96%.
In the case of `Cc1ccc(S(=O)(=O)N[C@@H](Cc2c[nH]c3ccccc23)C(=O)NNC(=O)c2ccc(N3CCOCC3)cc2)cc1` [Compound 163, (S)—N-(3-(1H-indol-3-yl)-1-(2-(4-morpholinobenzoyl)hydrazinyl)-1-oxopropan-2-yl)-4-methylbenzenesulfonamide], the “Cell Viability (% inhibition) (A549)” value amounted to 18.63 ± 9.48%.
Regarding `Cc1ccc(S(=O)(=O)N[C@@H](Cc2c[nH]c3ccccc23)C(=O)Nc2nc(-c3ccc(N4CCOCC4)cc3)cs2)cc1` [Compound 164, (S)-3-(1-indol-3-yl)-2-(4-methylphenylsulfonamido)-N-(4-(4-morpholinophenyl)thiazol-2-yl)propanamide], the “Cell Viability (% inhibition) (A549)” value was 88.05 ± 0.8%.
In the case of `COC(=O)c1ccc(-c2csc(NC(=O)[C@H](Cc3c[nH]c4ccccc34)NS(=O)(=O)c3ccc(C)cc3)n2)cc1` [Compound 165, (S)-Methyl 4-(2-(3-(1H-indol-3-yl)-2-(4-methylphenylsulfonamido)propanamido)thiazol-4-yl)benzoate] it was 78.22 ± 0.97%; in that of `O=C(OCc1ccccc1)[C@H](Cc1c[nH]c2ccccc12)NS(=O)(=O)c1ccc(C(F)(F)F)nc1` [Compound 166, (S)-Benzyl 3-(1H-indol-3-yl)-2-(6-(trifluoromethyl)pyridine-3-sulfonamido)propanoate], 97.48 ± 1%.
`Cc1ccc(S(=O)(=O)N[C@@H](CCC(=O)Nc2ccc([N+](=O)[O-])cc2)C(=O)Nc2ccc(N3CCOCC3)cc2)cc1` [Compound 167, (S)-2-(4-Methylphenylsulfonamido)-N^1-(morpholinophenyl)-N^5-(4-nitrophenyl)pentanediamide]: the “Cell Viability (% inhibition) (A549)” value came to 85.33 ± 1.28%.
In the case of `Cc1ccc(S(=O)(=O)N[C@@H](CCCCNC(=O)OCc2ccccc2)C(=O)Nc2ccc(N3CCOCC3)cc2)cc1` [Compound 168, (S)-Benzyl 5-(4-methylphenylsulfonamido)-6-(4-morpholinophenylamino)-6-oxohexylcarbamate] it was 84.11 ± 1.25%.
In the case of `Cc1ccc(S(=O)(=O)N[C@@H](CCCCN)C(=O)Nc2ccc(N3CCOCC3)cc2)cc1` [Compound 169, (S)-6-Amino-2-(4-methylphenylsulfonamido)-N-(4-morpholinophenyl)hexanamide], the “Cell Viability (% inhibition) (A549)” value is 3.97 ± ? .91%.
Then `COc1cc(OC)cc(C(=O)NCCCC[C@H](NS(=O)(=O)c2ccc(C)cc2)C(=O)Nc2ccc(N3CCOCC3)cc2)c1` [Compound 170, (S)-3,5-Dimethoxy-N-(5-(4-methylphenylsulfonamido)-6-(4-morpholinophenylamino)-6-oxohexyl)benzamide], with 31.41 ± 4.96%; and `COc1ccc(CNC(=O)CC[C@H](NS(=O)(=O)c2ccc(C)cc2)C(=O)Nc2ccc(N3CCOCC3)cc2)cc1` [Compound 171, (S)—N^5-(4-Methoxybenzyl)-2-(4-methylphenylsulfonamido)-N^1-(4-morpholinophenyl)pentanediamide], with 40.19 ± 4.29%; and `Cc1ccc(S(=O)(=O)N[C@@H](CCC(=O)Nc2ccccc2)C(=O)Nc2ccc(N3CCOCC3)cc2)cc1` [Compound 172, (S)-2-(4-Methylphenylsulfonamido)-N^1-(4-morpholinophenyl)-N^5-phenylpentanediamide], with −2.14 ± ? .1%.
As to `Cc1ccc(S(=O)(=O)N[C@@H](CCC(=O)N2CCOCC2)C(=O)Nc2ccc(N3CCOCC3)cc2)cc1` [Compound 173, (S)-2-(4-Methylphenylsulfonamido)-5-morpholino-N-(4-morpholinophenyl)-5-oxopentanamide], the “Cell Viability (% inhibition) (A549)” value worked out at 0.1 ± 5.51%.
In the case of `Cc1ccc(S(=O)(=O)N[C@@H](CCC(=O)Nc2ccc(F)cc2)C(=O)Nc2ccc(N3CCOCC3)cc2)cc1` [Compound 174, (S)—N^5-(4-fluorophenyl)-2-(4-methylphenylsulfonamido)-N^1-(4-morpholinophenyl)pentanediamide] it was 10.8 ± 2.26%.
In the case of `Cc1ccc(S(=O)(=O)N[C@@H](CCC(=O)Nc2ccc(C(C)(C)C)cc2)C(=O)Nc2ccc(N3CCOCC3)cc2)cc1` [Compound 175, (S)—N^5-(4-tert-butylphenyl)-2-(4-methylphenylsulfonamido)-N^1-(4-morpholinophenyl)pentanediamide] it was 28.4 ± 4.82%; in that of `Cc1ccc(S(=O)(=O)N[C@@H](CC(=O)Nc2ccc([N+](=O)[O-])cc2)C(=O)Nc2ccc(N3CCOCC3)cc2)cc1` [Compound 177, (S)-2-(4-Methylphenylsulfonamido)-N^1-(4-morpholinophenyl)-N^4-(4-nitrophenyl)succinamide], 53.91 ± 0.92%; in that of `O=C([C@H](Cc1c[nH]c2ccccc12)NS(=O)(=O)c1ccc(Br)cc1)n1ccc(-c2ccccc2)n1` [Compound 185, (S)—N-(3-(1H-indol-3-yl)-1-oxo-1-(3-phenyl-1H-pyrazol-1-yl)propan-2-yl)-4-bromobenzenesulfonamide], 13.09 ± 18.13%.
In the case of `CCCCCCCCCCCC(=O)NNC(=O)[C@H](Cc1c[nH]c2ccccc12)NS(=O)(=O)c1ccc(Br)cc1` [Compound 194, (S)-4-Bromo-N-(1-(2-dodecanoylhydrazinyl)-3-(1H-indol-3-yl)-1-oxopropan-2-yl)benzenesulfonamide], the “Cell Viability (% inhibition) (A549)” value amounted to 86.99 ± 0.6%.
In the case of `Cc1ccc(S(=O)(=O)N[C@@H](Cc2c[nH]c3ccccc23)C(=O)NC23CC4CC(CC(C4)C2)C3)cc1` [Compound 204, (S)—N-((3R,5R,7R)-adamantan-1-yl)-3-(1H-indol-3-yl)-2-(4-methylphenylsulfonamido)propanamide] it was 78.9 ± 2.62%; in that of `COc1ccc(CCNC(=O)[C@H](Cc2c[nH]c3ccccc23)NS(=O)(=O)c2ccc(C)cc2)cc1` [Compound 205, (S)-3-(1H-indol-3-yl)-N-(4-methoxyphenethyl)-2-(4-methylphenylsulfonamido)propanamide], 65.64 ± 5.37%.
Then `Cc1ccc(S(=O)(=O)N[C@@H](Cc2c[nH]c3ccccc23)C(=O)NCCCc2ccccc2)cc1` [Compound 206, (S)-3-(1H-indol-3-yl)-2-(4-methylphenylsulfonamido)-N-(3-phenylpropyl)propanamide], with 67.48 ± 2.35%; and `Cc1ccc(S(=O)(=O)N[C@@H](Cc2c[nH]c3ccccc23)C(=O)NCCc2ccc(F)cc2)cc1` [Compound 207, (S)—N-(4-fluorophenethyl)-3-(1H-indol-3-yl)-2-(4-methylphenylsulfonamido)propanamide], with 64.02 ± 2.15%; and `Cc1ccc(S(=O)(=O)N[C@@H](Cc2c[nH]c3ccccc23)C(=O)Nc2nc(-c3ccc(C(F)(F)F)cc3)cs2)cc1` [Compound 208, (S)-3-(1H-indol-3-yl)-2-(4-methylphenylsulfonamido)-N-(4-(4-(trifluoromethyl)phenyl)thiazol-2-yl)propanamide], with 82.89 ± 1.06%.
`O=C(NCCc1c[nH]c2ccccc12)[C@H](Cc1c[nH]c2ccccc12)NS(=O)(=O)c1ccc(Br)cc1` [Compound 209, (S)—N-(2-(1H-indol-3-yl)ethyl)-2-(4-bromophenylsulfonamido)-3-(1H-indol-3-yl)propanamide]: the “Cell Viability (% inhibition) (A549)” value came out at 89.27 ± 0.77%.
On to `COc1ccc(-c2csc(NC(=O)[C@H](Cc3c[nH]c4ccccc34)NC(=O)c3ccc(C)cc3)n2)cc1` [Compound 210, (S)—N-(3-(1H-indol-3-yl)-1-((4-(4-methoxyphenyl)thiazol-2-yl)amino)-1-oxopropan-2-yl)-4-methylbenzamide], for which the “Cell Viability (% inhibition) (A549)” value stood at 40.83 ± 8.13%.
Then `COc1ccc(-c2csc(NC(=O)[C@H](Cc3c[nH]c4ccccc34)NS(=O)(=O)c3ccc(Cl)cc3)n2)cc1` [Compound 211, (S)-2-(4-Chlorophenylsulfonamido)-3-(1H-indol-3-yl)-N-(4-(4-methoxyphenyl)thiazol-2-yl)propanamide], with 83.3 ± 1.04%.
